According to patent US20100286105A1, “METHODS OF TREATING HYPERANDROGENISM AND CONDITIONS ASSOCIATED THEREWITH BY ADMINISTERING A FATTY ACID ESTER OF AN ESTROGEN OR AN ESTROGEN DERIVATIVE” (priority 2006, published 2010):

How the values were obtained:
Format in all cases: in vivo, human
humans [1] = assay: Part 2: hormone levels (estrone, estradiol, testosterone, LH, leptin, CRP); settings: 7 days daily oral dosing
Experimental: (§1) For the second part of the study, […] subjects were divided into […]. Each group was dosed with a single daily dose of 10, 30, 100, or 150 mg oleoyl-estrone for a seven day period. Each individual in the group of 4 was randomized to oleoyl-estrone or placebo.
(§2) Subjects under went a physical examination to establish height, weight, BMI and baseline signs and symptoms. Electrocardiograms and vital signs were taken. Blood for evaluation of hematology, coagulation and clinical chemistry and urine for urinalysis were obtained for each subject. Samples were also taken for hormone analysis, including estrone, estradiol and testosterone. Food-intake and motivation-to-eat using visual analogue scale questionnaires were analyzed.
(§3) Males and post-menopausal females were recruited in both parts of the study. The trial protocol provided that patients should maintain a normal diet and level of activity, but required that patients abstain from consuming alcohol. At baseline, in the placebo group me mean patient weight was 100.5±4.9 kg and BMI 34.4±3.5 and in the oleoyl-estrone group the weight was 100.5±17.8 kg and the average BMI was 34±4.2. The results discussed below are from the second part of the study.

humans [2] = assay: Part 2: body weight and food consumption (visual analogue scale questionnaires)
Experimental: as §1, §2, §3

humans [3] = assay: Part 2: seven-day daily oral dose safety and tolerability study in humans
Experimental: (§4) A two-part study was conducted to evaluate the safety, tolerability, and pharmacokinetic (PK) profiles of single and multiple doses of oleoyl-estrone in humans.
as §1, §2, §3

humans [4] = assay: Part 2: hematology and clinical chemistry (white blood cells, lipids, glucose)
Experimental: as §1, §2, §3

humans [5] = assay: Part 1: single oral dose safety and tolerability study of oleoyl-estrone in humans; settings: one-time single oral dose
Experimental: as §4
For the first part of the study, thirty-six subjects where divided into groups of six. Each group was dosed with a single dose of 1, 3, 10, 30, 100, or 150 mg of oleoyl-estrone. Each individual in the group of 6 was randomized to oleoyl-estrone or placebo in a ratio of 2:1 where for every two individuals given oleoyl-estrone one is given a placebo.
Subjects under went a physical examination to establish height, weight, BMI and baseline signs and symptoms. Electrocardiograms and vital signs were taken. Blood for evaluation of hematology, coagulation and clinical chemistry and urine for urinalysis were obtained for each subject. Samples were also taken for hormone analysis, including estrone, estradiol and testosterone.

[6] = Part 2: pharmacokinetics, plasma concentration of oleoyl-estrone; settings: for Cmax: 100 mg, 100 mg group (highest)
Experimental: as §1, §2, §3

[7] = oleoyl-estrone treated group, 7 days daily oral dosing

For `CCCCCCCC/C=C\CCCCCCCC(=O)Oc1ccc2c(c1)CC[C@@H]1[C@@H]2CC[C@]2(C)C(=O)CC[C@@H]12` [oleoyl-estrone, [3(Z)]-3-[(1-oxo-9-octadecenyl)oxy]-estra-1,3,5(10)-trien-17-one], the “effects on LH” value (humans [1]) was “less clear-cut”, the mean estradiol levels (humans [1]) was “elevated” and the mean estrone levels (humans [1]) was “elevated”. The mean testosterone levels (humans [1]) was “suppressed in a reversible and dose dependent manner”, the CRP (humans [1]; to Day 15) was “increased in a dose-dependent manner, returning to baseline by Day 15” and the leptin (humans [1]; to Day 15) was “increased in a dose-dependent manner, returning to baseline by Day 15”. For the same molecule, the “dose dependence of VAS scores and loss of weight” value (humans [2]; 10-150 mg daily for 7 days) was “more or less dose-dependent, with maximal effects in the 30 mg and 100 mg groups”, the “feelings of hunger, satiety and prospective food consumption (VAS)” value (humans [2]; 7 days daily oral dosing) was “consistently demonstrated reductions” and the “weight loss compared to placebo” value (humans [2]; Day 28) was “greater and maintained”. For the same molecule, the “changes in physical examinations, vital signs, ECGs, coagulation or liver function tests” value (humans [3]; 7 days daily oral dosing) was “no clinically significant changes”, the post-menopausal bleeding (humans [3]; oleoyl-estrone study volunteers, similar episode 6 months prior to dosing) was “one had post-menopausal bleeding” and the “adverse effect: back pain (n affected/n treated)” value (humans [3]; [7]) was 4/17. The “adverse effect: diarrhea (n affected/n treated)” value (humans [3]; [7]) was 3/17, the “adverse effect: headache (n affected/n treated)” value (humans [3]; [7]) was 3/17 and the safety and tolerability (humans [3]; single daily oral dose 10-150 mg for seven days, humans) was “safe, well tolerated at oral doses up to 150 mg”. The serious adverse events (humans [3]; single daily oral dose up to 150 mg for seven days, humans) was “no serious adverse events were noted”, the “mean HDL cholesterol” value (humans [4]; 7 days daily oral dosing) was “increased” and the “mean LDL cholesterol” value (humans [4]; 7 days daily oral dosing) was “decreased”. For the same molecule, the “HDL:LDL cholesterol ratio” value (humans [4]; 7 days daily oral dosing, even lower doses) was “increase in the HDL:LDL cholesterol ratio even at the lower doses”, the mean glucose concentration (humans [4]; 7 days daily oral dosing, up to Day 15) was “fell in a reversible and dose dependent manner and was still low at Day 15” and the total mean cholesterol (humans [4]; Day 7, 100-150 mg) was “decrease at Day 7 with 100-150 mg”. The “white blood cell count” value (humans [4]; Day 7 and Day 15) was “increase in white blood cell count was seen in Day 7 but returned to baseline by Day 15”, the “total mean TAGs” value (humans [4]; all doses, all days) was “dose-dependent increase at all doses and on all days” and the safety and tolerability (humans [5]; 1 to 150 mg) was “safe, well tolerated at oral doses up to 150 mg”. The serious adverse events (humans [5]; up to 150 mg) was “no serious adverse events were noted”, the “plasma concentration of oleoyl-estrone versus administered dose level” value ([6]; 10-150 mg daily oral, assay of limited sensitivity) was “did not increase with the administered dose level” and the accumulation in plasma ([6]; Day 7 relative to Day 1, daily oral dosing for 7 consecutive days) was “no clear accumulation in plasma”. It also gave a Cmax ([6]; both sexes, human, plasma, oral, Day 1) of 2.4 ng/mL, a Cmax ([6]; both sexes, human, plasma, oral, Day 7) of 3.2 ng/mL and a concentration at 1 day ([6]; both sexes, human, plasma, oral, Day 1, across dose groups, read-out: oleoyl-estrone plasma levels) of 0.3 to 2.4 ng/mL. For the same molecule, the concentration at 7 day ([6]; both sexes, human, plasma, oral, Day 7, across dose groups, read-out: oleoyl-estrone plasma levels) was 0.3 to 3 ng/mL and the “sex differences in plasma concentration-time profiles” value ([6]; males and post-menopausal females) was “no clear differences between the sexes”.
